Here are results for seven molecules from paper PMC8443859 (Journal of Traditional and Complementary Medicine, 2021).

For series [1], the system named is measles virus. As to conditions: Vero cells; cited from earlier work.
Series [2] addresses S1 domain of SARS-CoV-2 spike protein (Severe acute respiratory syndrome coronavirus 2, UniProt P0DTC2). The series can be described thus: biochemical. The series is classed as binding. Particulars: for pKd: Kd.
For series [3], the system named is lentivirus particles pseudotyped (Vpp) with SARS-CoV-2 Spike protein. The series can be described thus: organism not typed. The series is classed as cell-based. As to conditions: for inhibition at 10 µM: HEK-293T, read-out: inhibition of SARS-CoV-2 viral infection efficacy.
Series [4] deals with 293T cells. The experiment in a line: Cell viability, MTT assay. The series is classed as cell-based. Particulars: Homo sapiens, HEK-293T, 48 h, read-out: IC50 cell viability. A general note: Formazan colour is commonly taken as a measure of viable cells.
The conditions of series [5]: annotation, ref TDEC website; cited from earlier work.
For series [6], the system named is adenovirus. Particulars: 293 cells; cited from earlier work.
For series [7], the system named is interaction between viral spike protein and ACE2 protein. As to conditions: cited from earlier work.

pIC50, pKd: −log10 of the molar value. *1 amine or outer side, *2 acyl side, *3 side chain or, on linkers, in order; H or OH if unused. Where a SMILES comes first, the peptide text is derived from it. Bridges are numbered along the chain shown (N, C = ends). Roman numbers before positions name the chains, in order. [ ]: non-standard residue; d: D form. Actinocin(9to1) = Cc1c2oc3c(C)ccc(C(=O)[*:1])c3nc-2c(C(=O)[*:2])c(N)c1=O; NMeV = CN[C@H](C(=O)O)C(C)C; Sar = CNCC(=O)O Where only a bound is given, the exact number is not on record here.

With `Cc1c2oc3c(C)ccc(C(=O)N[C@@H]4C(=O)N[C@H](C(C)C)C(=O)N5CCC[C@H]5C(=O)N(C)CC(=O)N(C)[C@@H](C(C)C)C(=O)O[C@@H]4C)c3nc-2c(C(=O)N[C@@H]2C(=O)N[C@H](C(C)C)C(=O)N3CCC[C@H]3C(=O)N(C)CC(=O)N(C)[C@@H](C(C)C)C(=O)O[C@@H]2C)c(N)c1=O` [Actinomycin D] (I: T[dV]P[Sar][NMeV] / II: T[dV]P[Sar][NMeV]; ester I:1-I:C, II:1-II:C; linker I:N-II:N via Actinocin(9to1)), in series [1], the “inhibition of measles virus replication and RNA synthesis” value was “inhibit measles virus replication and RNA synthesis”.

As a reminder, the pKd is the Kd on a negative log10 scale, so that one unit is a factor of ten. High values mean a small Kd, low ones a large Kd. The inhibition is the drop in the measured response relative to a control, in per cent. Broadly, the pIC50 is −log10 of the IC50, conventionally taken in molar units. Turning to `O=c1cc(-c2ccc(O)c(-c3c(O)cc(O)c4c(=O)cc(-c5ccc(O)cc5)oc34)c2)oc2cc(O)cc(O)c12` [Amentoflavone], in series [2], the “-TΔS” value turned out to be 12.3 kcal/mol, the “c (c value)” value is given as 6.4, the “n (reaction stoichiometry)” value worked out at 2.731 and the ΔH is -19.63 kcal/mol. The same molecule showed a pKd in series [2] of 5.37. In series [3], the inhibition at 10 µM was 50 to 90%. The pIC50 in series [4] is < 4.00.

As to `O=C1/C(=c2\c3ccccc3n3c(=O)c4ccccc4nc23)Nc2ccccc21` [Candidine], in series [2], the “-TΔS” value came to 17.35 kcal/mol, the “n (reaction stoichiometry)” value turned out to be 0.115, the ΔG is -6.554 kcal/mol and the ΔH is -23.9 kcal/mol. In series [2], the ΔS is listed as −243.4 J/mol·K and the pKd was 4.80.

Regarding `CC1=C(O)C(=O)C=C2C1=CC=C1[C@@]2(C)CC[C@@]2(C)[C@@H]3C[C@](C)(C(=O)O)CC[C@]3(C)CC[C@]12C` [Celastrol], in series [2], the “-TΔS” value is -47.59 kcal/mol, the “c (c value)” value is 8.2, the “n (reaction stoichiometry)” value is reported as 1.409 and the ΔG was -7.868 kcal/mol. In series [2], this molecule had a ΔH of 39.72 kcal/mol, a ΔS of 667.9 J/mol·K and a negative-log Kd (pKd) of 5.77. Further, the inhibition at 10 µM in series [3] was 50 to 90%. For the same molecule, in series [4], the negative logarithm of the IC50 (pIC50) was 6.01.

Consider `O=C1C(C2(C3(C4=Nc5ccccc5C4=O)Nc4ccccc4C3=O)Nc3ccccc3C2=O)=Nc2ccccc21` (stereo not shown) [Cephalinone D], for which, in series [2], the “-TΔS” value was -2.383 kcal/mol, the “c (c value)” value came out at 0.8, the “n (reaction stoichiometry)” value was 0.333 and the ΔS turned out to be 33.45 J/mol·K.

In the case of `C[C@@H]1CC[C@@]2(OC1)O[C@H]1C[C@H]3[C@@H]4CC=C5C[C@@H](O[C@@H]6O[C@H](CO)[C@@H](O[C@@H]7O[C@@H](C)[C@H](O)[C@@H](O)[C@H]7O)[C@H](O)[C@H]6O[C@@H]6O[C@@H](C)[C@H](O)[C@@H](O)[C@H]6O)CC[C@]5(C)[C@H]4CC[C@]3(C)[C@H]1[C@@H]2C` [Dioscin], in series [2], the “c (c value)” value was 117.3, the “n (reaction stoichiometry)” value is recorded as 5.488, the ΔG is -8.635 kcal/mol and the ΔS worked out at 110.6 J/mol·K. Besides, in series [2], the pKd was 6.33. In series [3] (10 µM), the “inhibition of SARS-CoV-2 viral infection efficacy” value is reported as “more than 80%”. In addition, in series [4], the pIC50 is 5.81. The “Water solubility, Solubility category” value in series [5] was “Moderate”. The “inhibition of adenovirus infection” value in series [6] is “inhibit the initial stage of adenovirus infection”.

As to `CC1(C)[C@@H](O[C@H]2O[C@H](C(=O)O)[C@@H](O)[C@H](O)[C@H]2O[C@@H]2O[C@H](C(=O)O)[C@@H](O)[C@H](O)[C@H]2O)CC[C@]2(C)[C@H]3C(=O)C=C4[C@@H]5C[C@@](C)(C(=O)O)CC[C@]5(C)CC[C@@]4(C)[C@]3(C)CC[C@@H]12` [Glycyrrhizic acid], in series [7], the “inhibitory activity against spike-ACE2 interaction” value is “inhibitory activity against the interaction between viral spike protein and ACE2 protein”.
